# Source: PubChem BioAssay (NCI)
#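 Test compounds were applied to cells in 96-well plates for 48 hours at 5 doses. GI50 = concentration required for 50% inhibition of growth. TGI denotes the concentration required for complete inhibition of growth.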
# Tests used:
# Test in all cases: growth of human tumour cells (NCI), 48 h
# 786-0 renal = test system: 786-0 renal
# A498 renal = test system: A498 renal
# A549 NSCLC = test system: A549 NSCLC
# ACHN renal = test system: ACHN renal
# BT-549 breast = test system: BT-549 breast
# CAKI-1 renal = test system: CAKI-1 renal
# CCRF-CEM leukemia = test system: CCRF-CEM leukemia
# COLO 205 colon = test system: COLO 205 colon
# DU-145 prostate = test system: DU-145 prostate
# EKVX NSCLC = test system: EKVX NSCLC
# HCC-2998 colon = test system: HCC-2998 colon
# HCT-116 colon = test system: HCT-116 colon
# HCT-15 colon = test system: HCT-15 colon
# HL-60(TB) leukemia = test system: HL-60(TB) leukemia
# HOP-62 NSCLC = test system: HOP-62 NSCLC
# HOP-92 NSCLC = test system: HOP-92 NSCLC
# HS 578T breast = test system: HS 578T breast
# HT29 colon = test system: HT29 colon
# IGROV1 ovarian = test system: IGROV1 ovarian
# K-562 leukemia = test system: K-562 leukemia
# KM12 colon = test system: KM12 colon
# LOX IMVI melanoma = test system: LOX IMVI melanoma
# M14 melanoma = test system: M14 melanoma
# MALME-3M melanoma = test system: MALME-3M melanoma
# MCF7 breast = test system: MCF7 breast
# MDA-MB-231 breast = test system: MDA-MB-231 breast
# MDA-MB-435 = test system: MDA-MB-435
# MDA-MB-468 breast = test system: MDA-MB-468 breast
# MOLT-4 leukemia = test system: MOLT-4 leukemia
# NCI-H226 lung = test system: NCI-H226 lung
# NCI-H23 lung = test system: NCI-H23 lung
# NCI-H460 lung = test system: NCI-H460 lung
# NCI-H522 lung = test system: NCI-H522 lung
# NCI/ADR-RES ovarian = test system: NCI/ADR-RES ovarian
# OVCAR-3 ovarian = test system: OVCAR-3 ovarian
# OVCAR-4 ovarian = test system: OVCAR-4 ovarian
# OVCAR-5 ovarian = test system: OVCAR-5 ovarian
# OVCAR-8 ovarian = test system: OVCAR-8 ovarian
# PC-3 prostate = test system: PC-3 prostate
# RPMI-8226 leukemia = test system: RPMI-8226 leukemia
# SF-268 CNS = test system: SF-268 CNS
# SF-295 CNS = test system: SF-295 CNS
# SF-539 CNS = test system: SF-539 CNS
# SK-MEL-2 melanoma = test system: SK-MEL-2 melanoma
# SK-MEL-28 melanoma = test system: SK-MEL-28 melanoma
# SK-MEL-5 melanoma = test system: SK-MEL-5 melanoma
# SK-OV-3 ovarian = test system: SK-OV-3 ovarian
# SN12C renal = test system: SN12C renal
# SNB-19 CNS = test system: SNB-19 CNS
# SNB-75 CNS = test system: SNB-75 CNS
# SR leukemia = test system: SR leukemia
# SW-620 colon = test system: SW-620 colon
# T-47D breast = test system: T-47D breast
# TK-10 renal = test system: TK-10 renal
# U251 CNS = test system: U251 CNS
# UACC-257 melanoma = test system: UACC-257 melanoma
# UACC-62 melanoma = test system: UACC-62 melanoma
# UO-31 renal = test system: UO-31 renal
compound,measurement,setting,value
Cc1oc(-c2ccccc2)nc1CN[C@@H]1C[C@@H]2C[C@H]([C@H]1C)C2(C)C,GI50,786-0 renal,5.64 µM
same,TGI,786-0 renal,21.1 µM
same,GI50,A498 renal,13.5 µM
same,TGI,A498 renal,26.8 µM
same,GI50,A549 NSCLC,14 µM
same,TGI,A549 NSCLC,33.6 µM
same,GI50,ACHN renal,13.7 µM
same,TGI,ACHN renal,26.5 µM
same,GI50,BT-549 breast,4.94 µM
same,TGI,BT-549 breast,19.1 µM
same,GI50,CAKI-1 renal,13.3 µM
same,TGI,CAKI-1 renal,26.1 µM
same,GI50,CCRF-CEM leukemia,18.9 µM
same,TGI,CCRF-CEM leukemia,48.6 µM
same,GI50,COLO 205 colon,2.11 µM
same,TGI,COLO 205 colon,5.3 µM
same,GI50,DU-145 prostate,10.1 µM
same,TGI,DU-145 prostate,21.8 µM
same,GI50,EKVX NSCLC,11.2 µM
same,TGI,EKVX NSCLC,23.3 µM
same,GI50,HCC-2998 colon,4.22 µM
same,TGI,HCC-2998 colon,16.6 µM
same,GI50,HCT-116 colon,4.3 µM
same,TGI,HCT-116 colon,18.3 µM
same,GI50,HCT-15 colon,3.85 µM
same,TGI,HCT-15 colon,15.5 µM
same,GI50,HL-60(TB) leukemia,18 µM
same,TGI,HL-60(TB) leukemia,37.7 µM
same,GI50,HOP-62 NSCLC,14.2 µM
same,TGI,HOP-62 NSCLC,32.4 µM
same,GI50,HOP-92 NSCLC,1.49 µM
same,TGI,HOP-92 NSCLC,12.6 µM
same,GI50,HS 578T breast,11.9 µM
same,TGI,HS 578T breast,30.5 µM
same,GI50,HT29 colon,3.39 µM
same,TGI,HT29 colon,15 µM
same,GI50,IGROV1 ovarian,10.1 µM
same,TGI,IGROV1 ovarian,22.1 µM
same,GI50,K-562 leukemia,3.63 µM
same,TGI,K-562 leukemia,> 100 µM
same,GI50,KM12 colon,9.49 µM
same,TGI,KM12 colon,21.8 µM
same,GI50,LOX IMVI melanoma,5.17 µM
same,TGI,LOX IMVI melanoma,18.1 µM
same,GI50,M14 melanoma,2.21 µM
same,TGI,M14 melanoma,5.78 µM
same,GI50,MALME-3M melanoma,2.87 µM
same,TGI,MALME-3M melanoma,13.6 µM
same,GI50,MCF7 breast,7.06 µM
same,TGI,MCF7 breast,21.4 µM
same,GI50,MDA-MB-231 breast,4.56 µM
same,TGI,MDA-MB-231 breast,16.9 µM
same,GI50,MDA-MB-435,13.3 µM
same,TGI,MDA-MB-435,26.5 µM
same,GI50,MDA-MB-468 breast,2.13 µM
same,TGI,MDA-MB-468 breast,8.29 µM
same,GI50,MOLT-4 leukemia,16.6 µM
same,TGI,MOLT-4 leukemia,45.9 µM
same,GI50,NCI-H226 lung,8.99 µM
same,TGI,NCI-H226 lung,25 µM
same,GI50,NCI-H23 lung,12.8 µM
same,TGI,NCI-H23 lung,25.9 µM
same,GI50,NCI-H460 lung,6.32 µM
same,TGI,NCI-H460 lung,20.3 µM
same,GI50,NCI-H522 lung,12.7 µM
same,TGI,NCI-H522 lung,28.4 µM
same,GI50,NCI/ADR-RES ovarian,12.7 µM
same,TGI,NCI/ADR-RES ovarian,25.5 µM
same,GI50,OVCAR-3 ovarian,12.7 µM
same,TGI,OVCAR-3 ovarian,25.6 µM
same,GI50,OVCAR-4 ovarian,11.4 µM
same,TGI,OVCAR-4 ovarian,25.8 µM
same,GI50,OVCAR-5 ovarian,7.9 µM
same,TGI,OVCAR-5 ovarian,20.6 µM
same,GI50,OVCAR-8 ovarian,14.1 µM
same,TGI,OVCAR-8 ovarian,31.8 µM
same,GI50,PC-3 prostate,7.17 µM
same,TGI,PC-3 prostate,23.1 µM
same,GI50,RPMI-8226 leukemia,3.82 µM
same,TGI,RPMI-8226 leukemia,19.2 µM
same,GI50,SF-268 CNS,11.6 µM
same,TGI,SF-268 CNS,25.7 µM
same,GI50,SF-295 CNS,15.6 µM
same,TGI,SF-295 CNS,29.1 µM
same,GI50,SF-539 CNS,12.5 µM
same,TGI,SF-539 CNS,25 µM
same,GI50,SK-MEL-2 melanoma,14.5 µM
same,TGI,SK-MEL-2 melanoma,28.4 µM
same,GI50,SK-MEL-28 melanoma,7.59 µM
same,TGI,SK-MEL-28 melanoma,20.3 µM
same,GI50,SK-MEL-5 melanoma,3.32 µM
same,TGI,SK-MEL-5 melanoma,11.9 µM
same,GI50,SK-OV-3 ovarian,16.8 µM
same,TGI,SK-OV-3 ovarian,32.3 µM
same,GI50,SN12C renal,10.5 µM
same,TGI,SN12C renal,22.5 µM
same,GI50,SNB-19 CNS,14.2 µM
same,TGI,SNB-19 CNS,27.3 µM
same,GI50,SNB-75 CNS,13.2 µM
same,TGI,SNB-75 CNS,26.6 µM
same,GI50,SR leukemia,10.6 µM
same,TGI,SR leukemia,36.7 µM
same,GI50,SW-620 colon,11.4 µM
same,TGI,SW-620 colon,24.5 µM
same,GI50,T-47D breast,4.42 µM
same,TGI,T-47D breast,21.4 µM
same,GI50,TK-10 renal,15.4 µM
same,TGI,TK-10 renal,31.5 µM
same,GI50,U251 CNS,7.61 µM
same,TGI,U251 CNS,22.8 µM
same,GI50,UACC-257 melanoma,7.95 µM
same,TGI,UACC-257 melanoma,21.4 µM
same,GI50,UACC-62 melanoma,12.5 µM
same,TGI,UACC-62 melanoma,25 µM
same,GI50,UO-31 renal,4.65 µM
same,TGI,UO-31 renal,18.8 µM
